# Like-named read-outs stand apart in the source and are kept apart here.
# Tests used:
# [1] = n-octanol/water partition coefficient (logP, logD); type: physicochemical; details: for logD: read-out: Calculated n-octanol/water partition coefficient (logD)
# Experimental: (§1) The HPLC system consisted of a Jasco delivery pump (Tokyo, Japan) equipped with autosampler connected to a Waters 2487 detector (Milford, MA, USA) coupled to Jasco Chromnav software (Version 2.0, Tokyo, Japan). Chromatographic separation was performed on a C8 Agilent Eclipse plus (4.6 mm i.d. × 250 mm, 5-μm particle size; Apple Valley, MN, USA). The HPLC-UV method was adapted from our previous study and revalidated for the present HPLC system. The method was employed to quantify mitragynine in partition coefficient, stability, dissolution and solubility studies.
# Lipophilicity of mitragynine was determined by n-octanol/water partition coefficient (P) using the method described by Low et al.. The distribution coefficient (log D) was determined in a similar manner to logP but instead of using water, buffers with a specific pH (4, 7, and 9) were used.
# [2] = pKa determination, conventional UV spectrophotometer method; type: physicochemical; details: aqueous buffer
# Excerpt: The instruments employed were UV spectrophotometer 8453 UV-Vis Diode Array (Agilent, Santa Clara, CA, USA), and Multiskan* GO Microplate Spectrophotometer (Thermo Scientific, Waltham, MA, USA). Data were captured using the Thermo Scientific SkanIt Software (Thermo Scientific, Version 3.2). Buffer Maker Software (version 1.0.1.55, BPP Marcin Borkowski, Marki, Poland,) was used for preparation of buffers with constant ionic strength for pKa determination. The pH-meter employed throughout the study was a PH 211 Hanna (Padova, Italy) equipped with a combined glass electrode.
# pKa determination was carried out using conventional UV and microplate spectrophotometer methods. Acetic acid, tris base and sodium carbonate were used to prepare stable buffers in the pH range of 3 to 12. The buffers were prepared to give a final buffer molarity of 0.01 M. Either NaOH or HCl were used for pH adjustment of the various buffers, whose ionic strength was kept constant at 0.02 by addition of NaCl.
# Five mL aliquots of buffer of various pH were transferred into separate tubes. To each tube, mitragynine stock solution in acetonitrile (4 mg/mL) was added to give a final drug concentration of 20 µg/mL. The percentage of organic content in final buffer preparation was kept below 1%. The prepared solutions were immediately scanned in the range of 200–400 nm.
# Stock solution of mitragynine at 0.5 mg/mL was prepared in acetonitrile. Ten microliters of the stock solution was transferred into individual test tubes and diluted with 1.0 mL buffer of various pH to give a final concentration of 5 μg/mL. For absorbance spectrum analysis, 250 μL of the various pH buffer solutions spiked with drug were placed in a 96-well quartz UV-transparent microplate and immediately scanned in the range of 200–400 nm at a scanning rate of 200 nm/s in triplicates. The pKa was calculated with equation pKa = pH + log (d − dm/di − d), for basic compound, where di is the absorbance of the ionised species, d is the absorbance of the solution tested and dm is the absorbance of the neutral species.
# [3] = system: rodents; parameters: method as in PMID 4626477; details: cited from earlier work
# [4] = parameters: method as in PMID 24841968; details: cited from earlier work
# [5] = Stability in buffers pH 4, 7, 9 (percentage recovered); type: physicochemical; details: for percentage recovered: 20 µg/mL
# Experimental: as §1
# For solubility studies, an excess of mitragynine was added to 1.0 mL each of distilled water or buffers at pH 4, 7 and 9. The test tubes were placed in a water bath shaker at 37 degrees Celsius at 100 cycles/min for 48 h until equilibrium. The samples were centrifuged at 3000 rpm for 5 min and supernatant was taken for quantification of mitragynine by HPLC-UV. […] A 0.1 mL aliquot was collected from each buffer system at intervals of 0, 0.5, 6.0 and 24.0 h for determination of mitragynine. Mitragynine concentrations were expressed as percentage recovered. All experiments were performed in triplicates.
# [6] = Stability in simulated gastric fluid (SGF, with enzymes); details: for Concentration Found in SGF: SGF pH ~1.2 with pepsin, 37 °C
# [7] = system: opiate receptor; parameters: method as in ref 29 = [29]; 29. Watanabe K. Yano S. Horie S. Yamamoto L.T. Takayama H. Aimi N. Sakai S. Ponglux D. Tongroach P. Shan J. Pharmacological properties of some structurally related indole alkaloids contained in the As; details: cited from earlier work
# [8] = system: mice; parameters: method as in Macko et al, 15; details: mitragynine salt solution, ref Macko et al, 15; cited from earlier work
smiles,measurement,setting,value
CC[C@@H]1CN2CCc3c([nH]c4cccc(OC)c34)[C@@H]2C[C@@H]1/C(=C\OC)C(=O)OC [mitragynine],logD,"[1]; n-octanol/buffer pH 4, pH 4",0.78
same,logD,"[1]; n-octanol/buffer pH 7, pH 7",1.73
same,logD,"[1]; n-octanol/buffer pH 9, pH 9",1.56
same,logP,"[1]; n-octanol/water, read-out: Calculated n-octanol/water partition coefficient (logP)",1.7
same,Mitragynine Content in buffer layer,[1]; octanol / buffer pH 4,2.98 µg/mL
same,Mitragynine Content in octanol layer,[1]; octanol / buffer pH 4,17.97 µg/mL
same,Mitragynine Content in buffer layer,[1]; octanol / buffer pH 7,0.38 µg/mL
same,Mitragynine Content in octanol layer,[1]; octanol / buffer pH 7,20.54 µg/mL
same,Mitragynine Content in buffer layer,[1]; octanol / buffer pH 9,0.51 µg/mL
same,Mitragynine Content in octanol layer,[1]; octanol / buffer pH 9,18.45 µg/mL
same,Mitragynine Content in aqueous layer,[1]; octanol / water,0.42 µg/mL
same,Mitragynine Content in octanol layer,[1]; octanol / water,20.74 µg/mL
same,pKa,"[2]; UV Spectrophotometer, Day 1, read-out: pKa, interday repeatability",8.18
same,pKa,"[2]; UV Spectrophotometer, Day 2, read-out: pKa, interday repeatability",8.11
same,pKa,"[2]; UV Spectrophotometer, Day 3, read-out: pKa, interday repeatability",8.15
same,pKa,"[2]; pH 7.52, target pH 7.6, actual pH 7.52, 20 µg/mL, 248 nm, read-out: pKa",8.02
same,pKa,"[2]; pH 7.6, conventional UV method, mean over pH 7.6-9.0, read-out: pKa (Mean ± SD)",8.11 ± 0.11
same,pKa,"[2]; pH 7.78, target pH 7.8, actual pH 7.78, 20 µg/mL, 248 nm, read-out: pKa",8.16
same,pKa,"[2]; pH 7.96, target pH 8.0, actual pH 7.96, 20 µg/mL, 248 nm, read-out: pKa",8.17
same,pKa,"[2]; pH 8.13, target pH 8.2, actual pH 8.13, 20 µg/mL, 248 nm, read-out: pKa",8.18
same,pKa,"[2]; pH 8.34, target pH 8.4, actual pH 8.34, 20 µg/mL, 248 nm, read-out: pKa",8.13
same,pKa,"[2]; pH 8.45, target pH 8.6, actual pH 8.45, 20 µg/mL, 248 nm, read-out: pKa",8.05
same,pKa,"[2]; pH 8.71, target pH 8.8, actual pH 8.71, 20 µg/mL, 248 nm, read-out: pKa",8.27
same,pKa,"[2]; pH 8.92, target pH 9.0, actual pH 8.92, 20 µg/mL, 248 nm, read-out: pKa",7.93
same,dose levels with no toxicity,[3],800 to 900 mg/kg
same,drug loss in SGF,[4],26%
same,stability in buffer (in words),[5]; pH 4,appears to degrade over time
same,percentage recovered,"[5]; pH 4 buffer, 0.5 h",100.6 ± 0.3%
same,percentage recovered,"[5]; pH 4 buffer, 6 h",91.8 ± 1.0%
same,percentage recovered,"[5]; pH 4 buffer, 24 h",88.8 ± 1.4%
same,stability in buffer (in words),"[5]; pH 7 and 9, 24 h",stable
same,percentage recovered,"[5]; pH 7 buffer, 0.5 h",99.2 ± 0.4%
same,percentage recovered,"[5]; pH 7 buffer, 6 h",96.1 ± 1.9%
same,percentage recovered,"[5]; pH 7 buffer, 24 h",101.9 ± 0.9%
same,percentage recovered,"[5]; pH 9 buffer, 0.5 h",101.3 ± 2.6%
same,percentage recovered,"[5]; pH 9 buffer, 6 h",97.8 ± 0.3%
same,percentage recovered,"[5]; pH 9 buffer, 24 h",95.5 ± 2.5%
same,Concentration Found in SGF,[6]; 0 min,18720 ± 50 ng/mL
same,RD (relative difference vs time 0) in SGF,[6]; 10 min,−0.21%
same,Concentration Found in SGF,[6]; 10 min,18680 ± 230 ng/mL
same,RD (relative difference vs time 0) in SGF,[6]; 20 min,−20.00%
same,Concentration Found in SGF,[6]; 20 min,14980 ± 880 ng/mL
same,RD (relative difference vs time 0) in SGF,[6]; 30 min,−22.5%
same,Concentration Found in SGF,[6]; 30 min,14540 ± 580 ng/mL
same,Concentration Found in SGF,[6]; 40 min,14190 ± 370 ng/mL
same,RD (relative difference vs time 0) in SGF,[6]; 50 min,−24.19%
same,Concentration Found in SGF,[6]; 50 min,14110 ± 220 ng/mL
same,RD (relative difference vs time 0) in SGF,[6]; 60 min,−25.53%
same,Concentration Found in SGF,[6]; 60 min,13940 ± 200 ng/mL
same,stability in SGF (in words),"[6]; SGF pH ≈ 1.2, 37 °C",not stable
same,relative deviation / drug loss in SGF,[6]; from the 20 min time point onwards,greater than 20%
same,"antinociceptive effect, potency compared with M. speciosa crude extract",[7],less potent than the M. speciosa crude extract
same,dose up to which no adverse reactions were reported,[8],920 mg/kg

# Reference: paper PMC6272646, “Understanding the Physicochemical Properties of Mitragynine, a Principal Alkaloid of Mitragyna speciosa, for Preclinical Evaluation” (Molecules, 2015)
